The conditions of data set [1]: corn oil, 200 ppm, oxidation induction time at 20° C. calculated from 100-130° C.
The conditions of data set [2]: corn oil, 200 ppm; for Acid value / Conjugated diene value / Peroxide value: 60° C., after 6 days; for Conjugated diene value: absorbance 232 nm.
Data set [3] is classed as physicochemical. Here is the method:
An appropriate amount of pure product of Embodiment 1 (about 50 mg) was weighed into a small aluminium box, and the weight of the sample was recorded after equilibration. For a thermogravimetric equipment, the temperature was selected to be 0° C. to 500° C., the heating rate to be 20° C./min, and the nitrogen flow rate to be 100 mL/min, and a thermogravimetric change curve was recorded. The initial reaction temperature was 300° C. according to a baseline extrapolation method. […] Curves A and B in FIG. 2 represent the rate of mass change and the mass change with increasing temperature, respectively.

The conditions of data set [4]: background statement; cited from earlier work.
The conditions of data set [5]: background statement; cited from earlier work. The source holds these as a separate data set.
The mark [6] stands for this setting: listed as Pure product of Comparative Example 5.
The mark [7] stands for this setting: listed as Pure product of Comparative Example 4.

Where two headings read alike, the source gives them in different places.

For “resveratrol conjugated linoleate [Comparative Example 5]”, the Shelf life in data set [1] (setting [6]) was 71.3 days. In addition, the Acid value in data set [2] came out at 0.60 mgKOH/g. Besides, in data set [2] (setting [6]), the Conjugated diene value is recorded as 3.65 and the Peroxide value was 27.5 meq/kg.

For “resveratrol conjugated linoleate [Comparative Example 4]”, the Shelf life in data set [1] (setting [7]) was 71.4 days. In data set [2] (setting [7]), the Conjugated diene value is recorded as 3.60 and the Peroxide value was determined as 27 meq/kg.

For “resveratrol nervonic acid ester [Embodiment 1]”, in data set [1], the Shelf life is 78.2 days. Also, in data set [2] (60° C., 0, 1, 3, 6 days), the “acid value versus resveratrol and blank control (FIG. 4)” value was “basically lower than those of resveratrol and blank control”; the “conjugated diene value versus resveratrol and blank control (FIG. 5)” value is “basically lower than those of resveratrol and blank control”; the “peroxide value versus resveratrol and blank control (FIG. 3)” value is “basically lower than those of resveratrol and blank control”. In data set [2], this molecule registered an Acid value of 0.55 mgKOH/g, a Peroxide value of 26.5 meq/kg and a Conjugated diene value of 3.33. The “antioxidant activity (DPPH radical scavenging activity)” value (10 mg in 1 mL 80% methanol, 30 min dark, 517 nm) amounted to 90.00%. In addition, the “antioxidant activity relative to resveratrol” value (DPPH, ratio to resveratrol) turned out to be 1.03 times. Also, the “initial reaction temperature (thermal stability temperature)” value in data set [3] turned out to be 300 °C.

On to `Oc1ccc(C=Cc2cc(O)cc(O)c2)cc1` [Resveratrol, 3, 4′, 5-trihydroxystilbene], for which the solubility in oil in data set [4] is 0.98 µg/g. For the same molecule, in data set [5], the oral bioavailability was less than 1%. For the same molecule, the “initial reaction temperature (thermal stability temperature)” value in data set [3] came out at 290 °C.

Values taken from patent US11976038B1 (priority 2023, dated 2024).
